Laboratory results from patent publication US20100093692A1, “PIPERIDINYL-PIPERIDINE AND PIPERAZINYL-PIPERIDINE FOR USE IN THE TREATMENT OF DIABETES OR PAIN” (Schering Corporation Sechering-Plough Corporation, priority 2007, published 2010).
Structures can show the parent of a compound that is named as a salt.

What was measured:
[1] = target: T1, H3 receptors (Cavia porcellus, UniProt Q9JI35); assay: Guinea pig H3 receptor binding assay; details: guinea pig brain membranes; [3H]R-α-methyl histamine or [3H]Nα-methyl histamine; range stated for a group of compounds
T1 construct: The source of the H3 receptors in this experiment was guinea pig brain; from tissue; host or cells: guinea pig brain membranes
T1 sequence (Q9JI35 whole entry): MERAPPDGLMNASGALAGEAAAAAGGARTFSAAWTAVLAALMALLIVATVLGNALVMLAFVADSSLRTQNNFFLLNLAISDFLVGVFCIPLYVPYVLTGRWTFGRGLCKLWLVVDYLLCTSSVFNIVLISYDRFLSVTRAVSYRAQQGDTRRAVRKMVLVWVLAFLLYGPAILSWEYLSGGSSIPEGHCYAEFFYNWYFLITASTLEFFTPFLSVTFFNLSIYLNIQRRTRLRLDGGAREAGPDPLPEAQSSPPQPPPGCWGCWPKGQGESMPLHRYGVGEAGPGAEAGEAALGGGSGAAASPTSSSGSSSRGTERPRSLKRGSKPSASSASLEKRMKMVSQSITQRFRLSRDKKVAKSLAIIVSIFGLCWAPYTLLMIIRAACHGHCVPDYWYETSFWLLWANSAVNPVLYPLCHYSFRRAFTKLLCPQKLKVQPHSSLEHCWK
Procedure: The source of the H3 receptors in this experiment was guinea pig brain obtained from animals weighing 400-600 g. The brain tissue was homogenized with a solution of 50 mM Tris, pH 7.5. The final concentration of tissue in the homogenization buffer was 10% w/v. The homogenates were centrifuged at 1,000×g for 10 minutes in order to remove clumps of tissue and debris. The resulting supernatants were then centrifuged at 50,000×g for 20 minutes in order to sediment the membranes, which were then washed three times in homogenization buffer (50,000×g for 20 minutes each). The membranes were frozen and stored at −70° C. until needed.
All compounds to be tested were dissolved in DMSO and then diluted into the binding buffer (50 mM Tris, pH 7.5) such that the final concentration was 2 μg/mL with 0.1% DMSO. Membranes were then added (400 μg of protein) to the reaction tubes. The reaction was started by the addition of 3 nM [^3H]R-α-methyl histamine (8.8 Ci/mmol) or 3 nM [^3H]N^α-methyl histamine (80 Ci/mmol) and continued under incubation at 30° C. for 30 minutes. Bound ligand was separated from unbound ligand by filtration, and the amount of radioactive ligand bound to the membranes was quantitated by liquid scintillation spectrometry. All incubations were performed in duplicate and the standard error was always less than 10%. Compounds that inhibited more than 70% of the specific binding of radioactive ligand to the receptor were serially diluted to determine a Ki (nM).

[2] = test system: diabetic Goto-Kakizaki rats; assay: In vivo effect on glucose levels in diabetic Goto-Kakizaki rats; set-up: species or system rat; details: 10 mg/kg/day in food chow, one week; untreated rats 34 mg/dl
Procedure: Adult, diabetic, Goto-Kakizaki rats (14 weeks old) were tested for non-fasting glucose levels using a glucometer. Rats with glucose levels between 130 and 370 mg/dl were randomized into treatment (N=10) and control (N=10) groups. Animals in the treatment group were administered Compound 446 in their food chow at a dose of 10 mg/kg/day. After one week of treatment, blood was collected via tail snip and the non-fasting glucose level was measured using a glucometer.

[3] = test system: STZ-induced type 2 diabetic mice; assay: In vivo effect on glucose levels in diabetic mice (western diet + low dose STZ); set-up: species or system mouse; details: 10 mg/kg/day in diet, four weeks; relative to control mice and mice treated with rosiglitazone (5 mg/kg/day in diet)
Procedure: Five-week-old male ICR mice were purchased from Taconic Farm (Germantown, N.Y.) and placed on a “western diet” containing 45% (kcal) fat from lard and 0.12% (w/w) cholesterol. After 3 weeks of feeding, the mice were injected once with low dose streptozocin (STZ, ip 80 mg/kg) to induce partial insulin deficiency. […] The diabetic mice were then placed in one of three groups: (1) a non-treated control group, (2) a group treated with rosiglitazone (5 mg/kg/day in diet); or (3) a group treated with Compound 446 (10/mg/kg/day in diet). All animals were treated for four weeks.

[4] = target: T2, human histamine H3 receptor (Homo sapiens, UniProt Q9Y5N1); assay: Human H3 receptor binding assay; details: HEK-293 membranes expressing human H3; 1 nM [3H]N-α-methylhistamine; n=4
T2 construct: The full-length human histamine H3 receptor was cloned by PCR; expressed in transfected cells
T2 sequence (Q9Y5N1 whole entry): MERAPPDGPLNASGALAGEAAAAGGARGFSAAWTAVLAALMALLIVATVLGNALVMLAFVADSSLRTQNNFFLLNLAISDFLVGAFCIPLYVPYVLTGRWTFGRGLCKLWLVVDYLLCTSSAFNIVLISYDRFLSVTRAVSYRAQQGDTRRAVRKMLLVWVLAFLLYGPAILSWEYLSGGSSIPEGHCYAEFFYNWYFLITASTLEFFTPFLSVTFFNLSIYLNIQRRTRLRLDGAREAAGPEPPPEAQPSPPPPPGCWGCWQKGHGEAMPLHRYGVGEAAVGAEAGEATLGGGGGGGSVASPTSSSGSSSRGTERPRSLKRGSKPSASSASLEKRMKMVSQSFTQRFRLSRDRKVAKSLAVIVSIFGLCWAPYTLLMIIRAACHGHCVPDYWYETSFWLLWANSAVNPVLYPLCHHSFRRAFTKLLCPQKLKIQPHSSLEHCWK
Procedure: The full-length human histamine H3 receptor was cloned by PCR from a human thalamus cDNA library, with primers derived from a public database, and inserted into the CMV promoter-driven expression vector pcDNA-3.1 (Invitrogen). HEK-293 human embryonic kidney cells (ATCC) were transfected with H3 receptor plasmid and stably expressing cells were selected with G-418. Cells were grown in Dulbecco's modified Eagle's medium/10% fetal calf serum containing high glucose, 25 mM Hepes, penicillin (100 U/ml), streptomycin (100 ug/ml), 2 mM glutamine, and 0.5 mg G-418/ml at 37° C. in a humidified atmosphere of 5% CO2. For membrane preparations, cells were harvested using aspirating media, replacing it with 5 mM EDTA/0.02% trypsin/Hank's balanced salt solution, followed by incubation at 37° C. for 5 to 10 minutes. […] Nonspecific binding was determined in the presence of 10^-5 M thioperamide. After a 30 minute incubation at 30° C., assay mixtures were filtered through 0.3% polyethylenimine-soaked GF/B glass fiber filters, which were then rinsed thrice with buffer, dried, impregnated with Meltilex wax scintillant, and counted. IC50 values were determined from curves fit to the data using a non-linear, least-squares, curve-fitting program and Ki values were determined using the method of Cheng and Prusoff.

[5] = test system: STZ-DIO Sprague-Dawley rats (T2DM); assay: In vivo effect on glucose and HbA1c in STZ-DIO diabetic rats; set-up: species or system rat; details: two weeks
Procedure: Seventy male DIO Sprague-Dawley rats were fed HFD (45% Kcal fat) for 3 months from weaning, and were given streptozotocin (STZ) intraperitoneally at 25 mg/kg to induce type 2 diabetes (T2DM). Forty four T2DM rats were chosen for the study two weeks after STZ injection (n=11 per group, with body weights between 632 and 838 g, non-fasting glucose between 226 and 426 mg/dl and HbA1c between 8.7% and 10.9%) and were given ad libitum access to pre-weighed 45% fat (kcal) HFD or Compound 287 (1.4, 2.9 mg/g in HFD) for two weeks. Body weight, non-fasting glucose and food intake were monitored daily. Body composition and HbA1c levels were monitored before and after the two-week study by the whole body magnetic resonance analyzer and Cholestech GDX analyzer (Hayward, Calif.), respectively. The STZ-DIO rats had elevated non-fasting glucose and HbA1c levels (non-fasting glucose were between 226 and 426 mg/dl; and HbA1c were between 8.7% and 10.9%) two weeks after STZ injection. The low dose of STZ caused a 48% reduction of plasma insulin levels, which was not sufficient to cause hyperglycemia in rats fed with chow diet. In contrast, this level of plasma insulin induced hyperglycemia in the face of insulin resistance induced by the HFD. […] The control STZ-DIO rats maintained non-fasting glucose levels above […] (+12 mg/dl), which led to a significant 0.96% increase in HbA1c over 14 days.

Row | Ki [1] | Structure (SMILES) | also measured
1 | 0.00083 to 0.016 µM | CO/N=C(/c1ccccn1)C1CCN(C(=O)C2CCN([C@H](C)c3ccnc(N)c3)CC2)CC1 [Compound 55] | 
2 | 0.00083 to 0.016 µM | CO/N=C(/c1ccccn1)C1CCN(C(=O)C2CCN(Cc3ccnc(N)c3)CC2)CC1 [Compound 32] | 
3 | 0.00083 to 0.016 µM | CO/N=C(/c1ccccn1)C1CCN(C(=O)C2CCN([C@@H](C)c3ccnc(N)c3)CC2)CC1 [Compound 54] | 
4 | 0.00083 to 0.016 µM | Nc1cc(CN2CCC(C(=O)N3CCC(C(=O)c4ccccn4)CC3)CC2)ccn1 [Compound 30] | 
5 | 0.00083 to 0.016 µM | CON=C(c1ccc(Cl)cc1)C1CCN(C(=O)C2CCN(Cc3ccnc(N)c3)CC2)CC1 [Compound 280] | 
6 |  | CO/N=C(/c1ccccn1)C1CCN(C(=O)C2(F)CCN(Cc3ccnc(N)c3)CC2)CC1 [Compound 446] | average reduction in non-fasting glucose levels [2]: 81 mg/dL; HbA1C levels [3]: significantly reduced; non-fasting glucose levels [3]: significantly reduced
7 |  | CON=C(CC1CCN(C(=O)C2CCN(Cc3ccnc(N)c3)CC2)CC1)c1ccccn1 (as salt: maleate) [Compound 117] | melting point: 160 to 163 °C
8 | 0.00083 to 0.016 µM | CO/N=C(/c1ccc(Cl)cc1)C1CCN(C(=O)C2CCN(Cc3ccncc3)CC2)CC1 [Compound 273] | 
9 | 0.00083 to 0.016 µM | CO/N=C(\c1ccccn1)C1CCN(C(=O)C2CCN([C@@H](C)c3ccnc(N)c3)CC2)CC1 [Compound 56] | 
10 | 0.00083 to 0.016 µM | CON=C(c1ccccn1)C1CCN(C(=O)C2CCN(Cc3ccnc(N)c3)CC2)CC1 [Compound 31] | 
11 |  | CO/N=C(/c1ccccn1)C1CCN(C(=O)C2CCN(Cc3cnc(N)nc3)CC2)CC1 [Compound 287] | Ki [4]: 0.025 ± 0.004 µM; decrease in HbA1c level ([5]; 68 mg/kg/day, 2.9 mg/g in HFD, control 0.96% increase): 0.6%; change in non-fasting glucose ([5]; 68 mg/kg/day, 2.9 mg/g in HFD, control +12 mg/dl): -43 mg/dL; HbA1c levels over the two week study period ([5]; 1.4, 2.9 mg/g in HFD): dose-dependent reduction
12 | 0.00083 to 0.016 µM | CO/N=C(/c1ccc(Cl)cc1)C1CCN(C(=O)C2CCN(Cc3ccnc(N)c3)CC2)CC1 [Compound 225] | 
13 | 0.00083 to 0.016 µM | CO/N=C(\c1ccccn1)C1CCN(C(=O)C2CCN(Cc3ccnc(N)c3)CC2)CC1 [Compound 33] | 
14 | 0.00083 to 0.016 µM | Nc1cc(CN2CCC(C(=O)N3CCC(C(=NO)c4ccccn4)CC3)CC2)ccn1 [Compound 237] | 
